Reference: patent US20250009734A1, “METHODS OF INHIBITING FOXO1 FOR TREATMENT OF LYMPHATIC DISORDERS” (UNIVERSITY OF SOUTH FLORIDA, priority 2023, published 2025)

Experiments:
[1] = system: human dermal lymphatic endothelial cells (hdLECs); assay: Western blot quantification of protein levels in cultured hdLECs; assay type: cell-based; conditions: 0.5 μM, 48 hours, vs vehicle control
Protocol: FIGS. 2A-2F. AS1842856 elevates protein expression of valve genes and promotes b-catenin nuclear localization in cultured hdLECs. (A) hdLECs were cultured under static condition and treated for 48 hours with 0.5 μM DMSO (vehicle control) or 0.5 μM AS treatment. Thereafter, proteins were extracted, and western blot perform for the indicated proteins. ACTB is the loading control. (B) Quantification results of indicated proteins in western blot from three independent experiments. (C-F) Immunostaining of cultured hdLECs for PROX1 and CTNNB1 protein. All values are mean±SEM. n=3 experiment repeats; ns=not significant; *p≤0.05, **p≤0.01, ***p≤0.001. Vehicle control: 0.5 μM DMSO for 48 hours treatment. AS1842856: 0.5 μM AS1842856 for 48 hours treatment. Cells were stained for PROX1 (green) and CTNNB1 (purple). (E) and (F) are the merged images for PROX1 and CTNNB1. Scale bar is 50 μm.
Next, the inventors performed western blot on the cells treated with 0.5 μM for 48 hours to determine whether the expression of these genes on the protein level was consistent with the PCR results. Three independent experiments of cultured hdLECs were performed, similarly to the quantitative RT-qPCR experiments. Protein levels of FOXC2, GATA2, KLF4, ITGα9, GJA4, activated β-catenin, total β-catenin, PROX1, and FOXO1 were quantified from western blot.
Human dermal lymphatic endothelial cells (hdLECs) purchased from Promocell (C-12216) were cultured in EBM-V2 (PromoCell, C-22121) media on fibronectin (20 μl/well) coated 6-well plates. hdLECs were treated with 4 different conditions: DMSO (1 μM), AS1842856 (EMD Millipore Corporation) 0.1 μM, 0.5 μM and 1 μM for 3 different time points: 24, 48, and 72 hours for qRT-PCR. For western blot, hdLECs were treated with 0.5 μM AS1842856 for 48 hours.
hdLECs were washed 3 times with 1×PBS and 1×RIPA buffer and 100× phosphatase inhibitor (Pierce™, Thermoscientific) was added. A cell scraper was used to scrape the hdLECs off the 6-well plate. hdLECs were pipetted and submerged in lysis RIPA solution. The lysate was collected in a 1.5 mL protein LoBind tube and incubated for 15 mins in ice on an orbital shaker (Belly button, IBI Scientific) for complete lysis. The lysates were then centrifuged for 20 mins at 18300 RPM at 4° C. to and the supernatant was collected in a separate Protein LoBind tube without disturbing the pellet. A Bicinchoninic acid assay (BCA assay, Pierce™, Thermofisher) was performed to calculate protein concentration according to manufacturer's instructions and 25 μg of the total protein was utilized to perform the western blot. The Invitrogen™ mini gel tank apparatus was used to run the western blot on a 4-12% Blot™ Bis Tris Plus polyacrylamide gel. Protein transfer to a PVDF membrane was carried out using an iBlot 2 dry blotting system (Lifesciences, Thermofisher) under the P0 module. The iBind Flex western system (Thermo Fisher Scientific) was used to process the mini blots utilizing an incubation time of >2.5 hours after which the blots were imaged using a Bio-Rad ChemiDoc imaging system.
Quantification analysis of western blot bands was performed in the following manner: 1. Unsaturated western blot images (.scn) were opened with Image Lab 6.1 (Bio-Rad); 2. Using the “lane and bands” tool on the left sidebar of Image Lab, the lanes were defined and adjusted manually; 3. Using the “lane and bands” tool, the bands were identified manually with “add” bands option; 4. The “lane profile” tool was used to omit background; 5. The standard and sample lanes were labeled on the “image info” tool; 6. The adjusted volume (Int) value was obtained using the “lane analysis” tool on Image Lab; 7. Each protein's band volume was normalized to the band volume of the housekeeping protein (b-Actin); 8. Relative expression of each protein was calculated by normalizing the band volume of the experimental group (AS 0.5) to its control (DMSO).

[2] = Nagashima et al., 2010; cited from earlier work

Structure (SMILES): CCn1cc(C(=O)O)c(=O)c2c(N)c(F)c(NC3CCCCC3)cc21 [AS1842856]
- FOXC2 protein expression level [1]: significantly upregulated
- FOXO1 protein expression [1]: did not change
- GATA2 protein expression level [1]: significantly upregulated
- GJA4 protein expression level [1]: significantly upregulated
- ITGA9 protein expression level [1]: significantly upregulated
- KLF4 protein expression level [1]: significantly upregulated
- PROX1 protein level [1]: did not alter
- amount of active (non-phosphorylated) β-catenin protein [1]: increased significantly
- amount of p-GSK3β [1]: significantly decreased
- amount of total GSK3β [1]: significantly increased
- amount of total β-catenin protein [1]: increased significantly
- cell permeability [2]: cell permeable
